# Experimental data: patent publication US8946197B2, “Transglutaminase TG2 inhibitors, pharmaceutical compositions, and methods of use thereof” (CHDI Foundation, Inc., priority 2009, dated 2015)
# Where “and” joins values, the source holds several entries; their conditions need not be identical. Equal values may be shown once.
# Biological target: T1, human TG2 (Homo sapiens, UniProt P21980)
# T1 sequence (P21980 1-687): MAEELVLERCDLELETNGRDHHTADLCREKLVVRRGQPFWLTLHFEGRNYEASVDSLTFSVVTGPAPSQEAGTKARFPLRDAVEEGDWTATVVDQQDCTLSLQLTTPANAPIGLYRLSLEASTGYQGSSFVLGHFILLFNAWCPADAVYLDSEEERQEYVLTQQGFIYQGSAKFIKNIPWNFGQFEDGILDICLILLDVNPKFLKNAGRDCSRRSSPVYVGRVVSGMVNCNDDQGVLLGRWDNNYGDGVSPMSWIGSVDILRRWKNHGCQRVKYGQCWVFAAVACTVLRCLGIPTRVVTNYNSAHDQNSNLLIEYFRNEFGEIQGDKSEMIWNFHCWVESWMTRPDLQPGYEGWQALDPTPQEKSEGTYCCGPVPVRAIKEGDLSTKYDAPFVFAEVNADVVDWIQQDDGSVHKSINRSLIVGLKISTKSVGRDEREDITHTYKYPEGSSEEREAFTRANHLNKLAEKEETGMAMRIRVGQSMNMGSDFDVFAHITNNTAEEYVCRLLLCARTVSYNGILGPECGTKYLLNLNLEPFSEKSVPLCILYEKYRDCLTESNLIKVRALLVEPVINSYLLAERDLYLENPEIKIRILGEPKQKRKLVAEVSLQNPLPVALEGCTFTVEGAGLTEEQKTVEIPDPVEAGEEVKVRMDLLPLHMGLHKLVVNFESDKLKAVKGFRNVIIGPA
# Assay: fluorescent screening assay for human TG2
# Assay type: biochemical
# Details: 20 nM TG2, 8 μM N,N-dimethylated Casein, 16 μM KxD, pH 7.4, 37° C
# Protocol: (§1) The fluorescent screening assay for human TG2 was performed as described herein: Assay conditions were 20 nM TG2, 8 μM N,N-dimethylated Casein (NMC) and 16 μM K×D (used for all transglutaminase assays) in 25 mM Hepes, pH 7.4, 250 mM NaCl, 2 mM MgCl2, 0.5 mM CaCl2, 0.2 mM DTT, 0.05% Pluronic F-127 at 37° C. A time point was taken with a microplate reader (Safire or Ultra, Tecan; ex: 350 nm, em: 535 nm) every 3 minutes for up to 2 hours and the initial linear reaction progress was used to determine the reaction velocity as a measure for enzyme activity. Assay conditions were identical for human TG6 and similar for human TG1 and mouse TG2 apart from enzyme concentration (mTG2 at 5 nM; TG1 at 10 nM) and CaCl2 concentration (0.2 mM for mTG2; 0.05 mM for TG1). Factor XIIIa was activated using 0.1 μg/μl thrombin (Sigma) in 35 mM Tris pH 8.0 for 20 min at 30° C. and the transamidation reaction was performed with 20 nM Factor XIIIa in 50 mM Tris pH 8.0, 1.25 mM CaCl2, 0.05% Pluronic, 0.2 mM DTT. TG3 was activated with 0.02 μg/μl thrombin under the same conditions as Factor XIIIa and assay conditions were 10 nM TG3 in 50 mM Hepes, pH 8, 20 mM CaCl2, 0.2 mM DTT, 0.05% Pluronic F-127.
# as §1, with “A” for “The”
row,SMILES,IC50
1,C=CC(=O)Nc1ccc(S(=O)(=O)N2CCN(C(=O)N3CCCCC3)CC2)cc1 [N-{4-[4-(Piperidine-1-carbonyl)-piperazine-1-sulfonyl]-phenyl}-acrylamide],100 to 1000 nM and < 100 nM
2,"C=CC(=O)Nc1ccc(S(=O)(=O)N2CCN(C(=O)OCc3cccc(F)c3F)CC2)cc1 [4-(4-Acryloylamino-benzenesulfonyl)-piperazine-1-carboxylic acid 2,3-difluoro-benzyl ester]",100 to 1000 nM and < 100 nM
3,C=CC(=O)Nc1ccc(S(=O)(=O)N2CCN(C(=O)CCc3ccccn3)CC2)cc1 [N-{4-[4-(3-Pyridin-2-yl-propionyl)-piperazine-1-sulfonyl]-phenyl}-acrylamide],100 to 1000 nM and < 100 nM
4,CC#CC(=O)Nc1ccc(S(=O)(=O)N2CCN(C(=O)OC(C)(C)C)CC2)cc1 [4-[4-(1-Oxo-but-2-ynylamino)-benzenesulfonyl]-piperazine-1-carboxylic acid tert-butyl ester],1000 to 25000 nM
5,C=CC(=O)Nc1ccc(S(=O)(=O)N2CCN(C(=O)OC(C)(C)C)CC2)c(Cl)c1 [4-(4-Acryloylamino-2-chloro-benzenesulfonyl)-piperazine-1-carboxylic acid tert-butyl ester],100 to 1000 nM and < 100 nM
6,C=CC(=O)Nc1ccc(S(=O)(=O)N2CCN(C(=O)OCc3ccc(C(C)(C)C)cc3)CC2)cc1 [4-(4-Acryloylamino-benzenesulfonyl)-piperazine-1-carboxylic acid 4-tert-butyl-benzyl ester],1000 to 25000 nM
7,C=CC(=O)Nc1ccc(S(=O)(=O)N2CCNCC2)c(C)c1 [N-[3-Methyl-4-(piperazine-1-sulfonyl)-phenyl]-acrylamide],1000 to 25000 nM
8,C=CC(=O)Nc1ccc(S(=O)(=O)N2CCN(c3ncccn3)CC2)cc1 [N-[4-(4-Pyrimidin-2-yl-piperazine-1-sulfonyl)-phenyl]-acrylamide],< 100 nM and 100 to 1000 nM
9,C=CC(=O)Nc1ccc(S(=O)(=O)N2CCN(c3ncccc3C(F)(F)F)CC2)cc1 [N-{4-[4-(3-Trifluoromethyl-pyridin-2-yl)-piperazine-1-sulfonyl]-phenyl}-acrylamide],100 to 1000 nM and < 100 nM
10,C=CC(=O)Nc1ccc(S(=O)(=O)N2CCN(C(=O)C3CC3)CC2)cc1 [N-[4-(4-Cyclopropanecarbonyl-piperazine-1-sulfonyl)-phenyl]-acrylamide],100 to 1000 nM and < 100 nM
11,C=CC(=O)Nc1ccc(S(=O)(=O)N2CCN(C(=O)OCc3ccccc3)CC2)cc1F [4-(4-Acryloylamino-3-fluoro-benzenesulfonyl)-piperazine-1-carboxylic acid benzyl ester],1000 to 25000 nM
12,C=CC(=O)Nc1ccc(S(=O)(=O)N2CCN(C(=O)OCc3ccccc3)[C@@H](C)C2)cc1 [4-(4-Acryloylamino-benzenesulfonyl)-2-methyl-piperazine-1-carboxylic acid benzyl ester],100 to 1000 nM and < 100 nM
13,C=CC(=O)Nc1ccc(S(=O)(=O)N(C)Cc2cccc(CN3CCCC3)c2)cc1 [N-{4-[Methyl-(3-pyrrolidin-1-ylmethyl-benzyl)-sulfamoyl]-phenyl}-acrylamide],1000 to 25000 nM
14,C=CC(=O)Nc1ccc(S(=O)(=O)N2CCN(C(=O)N(C)C)CC2)cc1 [4-(4-Acryloylamino-benzenesulfonyl)-piperazine-1-carboxylic acid dimethylamide],100 to 1000 nM and < 100 nM
15,CC(C)(C)OC(=O)N1CCN(S(=O)(=O)c2ccc(NC(=O)/C=C\Cl)cc2)CC1 [(Z)-tert-butyl 4-(4-(3-chloroacrylamido)phenylsulfonyl)piperazine-1-carboxylate],100 to 1000 nM
16,C/C=C\C(=O)Nc1ccc(S(=O)(=O)N2CCN(C(=O)OC(C)(C)C)CC2)cc1 [(Z)-tert-butyl 4-(4-but-2-enamidophenylsulfonyl)piperazine-1-carboxylate],1000 to 25000 nM

row,SMILES,IC50
1,C=CC(=O)Nc1ccc(S(=O)(=O)N2CCN(c3ccnc(Cl)n3)CC2)cc1 [N-{4-[4-(2-Chloro-pyrimidin-4-yl)-piperazine-1-sulfonyl]-phenyl}-acrylamide],< 100 nM and 100 to 1000 nM
2,C=CC(=O)Nc1ccc(S(=O)(=O)N2CCN(C34CC5CC(CC(C5)C3)C4)CC2)cc1 [N-[4-(4-Adamantan-1-yl-piperazine-1-sulfonyl)-phenyl]-acrylamide],1000 to 25000 nM
3,C=CC(=O)Nc1ccc(S(=O)(=O)N2CCN(c3ccc(Cl)cn3)CC2)cc1 [N-{4-[4-(5-Chloro-pyridin-2-yl)-piperazine-1-sulfonyl]-phenyl}-acrylamide],< 100 nM and 100 to 1000 nM
4,CC(C)(C)OC(=O)N1CCN(S(=O)(=O)c2ccc(NC(=O)/C=C/Cl)cc2)CC1 [(E)-tert-butyl 4-(4-(3-chloroacrylamido)phenylsulfonyl)piperazine-1-carboxylate],1000 to 25000 nM
5,C=CC(=O)Nc1ccc(S(=O)(=O)N2CCN(c3nccs3)CC2)cc1 [N-[4-(4-Thiazol-2-yl-piperazine-1-sulfonyl)-phenyl]-acrylamide],100 to 1000 nM and < 100 nM
6,C=CC(=O)Nc1ccc(S(=O)(=O)N2CCN(C(=O)Cc3ccc4ccccc4c3)CC2)cc1 [N-{4-[4-(2-Naphthalen-2-yl-acetyl)-piperazine-1-sulfonyl]-phenyl}-acrylamide],100 to 1000 nM and < 100 nM
7,C=CC(=O)Nc1ccc(S(=O)(=O)N2CCN(C(=O)C34CC5CC(CC(C5)C3)C4)CC2)c(F)c1 [N-{4-[4-(Adamantane-1-carbonyl)-piperazine-1-sulfonyl]-3-fluoro-phenyl}-acrylamide],100 to 1000 nM and < 100 nM
8,C=CC(=O)Nc1ccc(S(=O)(=O)N2CCN(c3nccc(OC)n3)CC2)cc1 [N-{4-[4-(4-Methoxy-pyrimidin-2-yl)-piperazine-1-sulfonyl]-phenyl}-acrylamide],< 100 nM and 100 to 1000 nM
9,C=CC(=O)Nc1ccc(S(=O)(=O)N2CCNC(c3ccc(C)o3)C2)cc1 (centres unmarked) [N-{4-[3-(5-Methyl-furan-2-yl)-piperazine-1-sulfonyl]-phenyl}-acrylamide],1000 to 25000 nM
10,C=CC(=O)Nc1ccc(S(=O)(=O)NCc2ccc(-c3ccccc3)nc2)cc1 [N-{4-[(6-Phenyl-pyridin-3-ylmethyl)-sulfamoyl]-phenyl}-acrylamide],1000 to 25000 nM
11,"C=CC(=O)Nc1ccc(S(=O)(=O)N2CCc3cc(S(=O)(=O)N(C)C)ccc32)cc1 [N-[4-(5-Dimethylsulfamoyl-2,3-dihydro-indole-1-sulfonyl)-phenyl]-acrylamide]",100 to 1000 nM and < 100 nM
12,C=CC(=O)Nc1ccc(S(=O)(=O)N2CCN(C(=O)OCc3ccc(C)cc3)CC2)cc1 [4-(4-Acryloylamino-benzenesulfonyl)-piperazine-1-carboxylic acid 4-methyl-benzyl ester],100 to 1000 nM and < 100 nM
13,C=CC(=O)Nc1ccc(S(=O)(=O)N2CCN(C(=O)OCc3ccc(CCCC)cc3)CC2)cc1 [4-(4-Acryloylamino-benzenesulfonyl)-piperazine-1-carboxylic acid 4-butyl-benzyl ester],1000 to 25000 nM
14,C=CC(=O)Nc1ccc(S(=O)(=O)N2CCN(C(=O)Oc3ccccc3)CC2)cc1 [4-(4-Acryloylamino-benzenesulfonyl)-piperazine-1-carboxylic acid phenyl ester],100 to 1000 nM and < 100 nM
15,"C=CC(=O)Nc1ccc(S(=O)(=O)N2CCN(c3nccc4occc34)CC2)cc1 [N-[4-(4-Furo[3,2-c]pyridin-4-yl-piperazine-1-sulfonyl)-phenyl]-acrylamide]",< 100 nM and 100 to 1000 nM
16,C=CC(=O)Nc1ccc(S(=O)(=O)N2CCN(C(=O)OCC(C)C)CC2)cc1 [4-(4-Acryloylamino-benzenesulfonyl)-piperazine-1-carboxylic acid isobutyl ester],100 to 1000 nM and < 100 nM
